Patent publication US7939550B2, “Aminopyrazole derivatives, process for the preparation thereof, and composition for preventing or treating ischemic diseases containing the same” (Korea Research Institute of Chemical Technology, priority 2006, dated 2011)

Tested on: Cardiomyocyte cell line H9c2 cells
Assay: Inhibitory effect on ischemic cell death (chemical hypoxia, DAPI staining)
Type: cell-based
Conditions: Rattus norvegicus, derivative 10 μM in DMSO, 30 min pretreatment, then chemical hypoxia solution 1 to 2 hours, DAPI stain, fluorescence microscope, DMSO control 25.86385, read-out: Apoptosis (%)
Protocol: The aminopyrazole derivatives of the present invention were examined for ischemic cell death inhibitory effect in cells according to the following procedure.
Cardiomyocyte cell line H9c2 cells were cultured in DMEM (Dulbecco's modified Eagle's medium) supplemented with 10% fetal bovine serum and 1% penicillin/streptomycin (100× solution). The cells were grown in 35 mm dishes such that the number thereof becomes 1×10^4, and cultured at 37° C. for 48 hours in a CO2 incubator. The cells were treated with 0.1% DMSO only (control), or the solutions dissolving the derivatives of Examples 1 to 30 (10 μM) in DMSO respectively. After 30 minutes, the cells were washed with PBS, and continuously treated with the DMSO solution (control) or the above solutions dissolving the derivatives together with chemical hypoxia solution (106 mM NaCl, 4.4 mM KCl, 1 mM MgCl2, 38 mM NaHCO3, 2.5 mM CaCl2, 20 mM 2-deoxy glucose, 1 mM NaCN) for 1 to 2 hours, while evaluating the cell damage by microscope. At the time when the sufficient damage were observed, the cells were washed with 1 ml of PBS twice, and then treated to fix with 1 ml of 3.7% formaldehyde. The cells obtained were washed with 1 ml of PBS again, stained with DAPI, and then washed with 1 ml of PBS in three times. The cell death of the cells was observed by a fluorescence microscope, and the degree of the observed cell death was converted to percentages.

Compared with `COC(=O)c1nn(CCc2ccccc2)cc1NC(=O)CSc1ccc(Br)cc1` [Example 1, 4-[2-(4-bromo-phenylsulfanyl)-acetylamino]-1-phenethyl-1H-pyrazole-3-carboxylic acid methyl ester], `COC(=O)c1nn(CCc2ccccc2)cc1NC(=O)CCSc1ccc(Br)cc1` [Example 18] is higher in cytotoxicity at 10 µM: 5.79% for the first, 8.75% for the second.

First: COC(=O)c1nn(CCc2ccccc2)cc1NC(=O)CSc1ccccc1 [Example 2, 4-[2-(phenylsulfanyl)-acetylamino]-1-phenethyl-1H-pyrazole-3-carboxylic acid methyl ester]
Second: COC(=O)c1nn(Cc2ccccc2)cc1NC(=O)CSc1ccccc1 [Example 13, 4-[2-phenylsulfanylacetylamino]-1-benzyl-1H-pyrazole-3-carboxylic acid methyl ester]
The cytotoxicity at 10 µM of the first is higher: 11% for the first, 9.81% for the second.

First: COC(=O)c1nn(CCc2ccccc2)cc1NC(=O)CSc1cccc(OC)c1 [Example 3, 4-[2-(3-methoxy-phenylsulfanyl)-acetylamino]-1-phenethyl-1H-pyrazole-3-carboxylic acid methyl ester]
Second: COC(=O)c1nn(CCc2ccccc2)cc1NC(=O)CSc1ccc(C)c(C)c1 [Example 11, 4-[2-(3,4-dimethyl-phenylsulfanyl)-acetylamino]-1-phenethyl-1H-pyrazole-3-carboxylic acid methyl ester]
The cytotoxicity at 10 µM of the first is lower: 8.26% for the first, 15.7% for the second.

Going from `COC(=O)c1nn(CCc2ccccc2)cc1NC(=O)CSc1ccc([N+](=O)[O-])cc1` [Example 4, 4-[2-(4-nitro-phenylsulfanyl)-acetylamino]-1-phenethyl-1H-pyrazole-3-carboxylic acid methyl ester] to `COC(=O)c1nn(CCc2ccccc2)cc1NC(=O)CSc1ccc(C)cc1` [Example 6, 4-[2-(4-methyl-phenylsulfanyl)-acetylamino]-1-phenethyl-1H-pyrazole-3-carboxylic acid methyl ester], the cytotoxicity at 10 µM rises from 3.74% to 5.43%.

Going from `COC(=O)c1nn(CCc2ccccc2)cc1NC(=O)CSc1ccccc1N` [Example 5, 4-[2-(2-amino-phenylsulfanyl)-acetylamino]-1-phenethyl-1H-pyrazole-3-carboxylic acid methyl ester] to `COC(=O)c1nn(CCc2ccccc2)cc1NC(=O)CSc1ccccn1` [Example 8, 4-[2-(2-pyridylsulfanyl)-acetylamino]-1-phenethyl-1H-pyrazole-3-carboxylic acid methyl ester], the cytotoxicity at 10 µM falls from 6.48% to 5.65%.

First: COC(=O)c1nn(CCc2ccccc2)cc1NC(=O)CSc1ccc(F)cc1 [Example 7, 4-[2-(4-fluoro-phenylsulfanyl)-acetylamino]-1-phenethyl-1H-pyrazole-3-carboxylic acid methyl ester]
Second: COC(=O)c1nn(Cc2ccccc2)cc1NC(=O)CSc1ccc(Br)cc1 [Example 12, 4-[2-(4-bromo-phenylsulfanyl)-acetylamino]-1-benzyl-1H-pyrazole-3-carboxylic acid methyl ester]
The cytotoxicity at 10 µM of the first is lower: 6.49% for the first, 11.5% for the second.

Compared with `COC(=O)c1nn(CCc2ccccc2)cc1NC(=O)C[S+]([O-])c1ccccn1` (stereo not drawn) [Example 9, 4-[2-(2-pyridylsulfinyl)-acetylamino]-1-phenethyl-1H-pyrazole-3-carboxylic acid methyl ester], `COC(=O)c1nn(CCc2ccccc2)cc1NC(=O)CS(=O)(=O)c1ccccn1` [Example 10, 4-[2-(2-pyridylsulfonyl)-acetylamino]-1-phenethyl-1H-pyrazole-3-carboxylic acid methyl ester] is higher in cytotoxicity at 10 µM: 3.74% for the first, 7.27% for the second.

Compared with `COC(=O)c1nn(C)cc1NC(=O)CSc1ccc(Br)cc1` [Example 14, 4-[2-(4-bromo-phenylsulfanyl)-acetylamino]-1-methyl-1H-pyrazole-3-carboxylic acid methyl ester], `COC(=O)c1c(NC(=O)CSc2ccc(Br)cc2)cnn1C` [Example 17, 4-[2-(4-bromo-phenylsulfanyl)-acetylamino]-2-methyl-2H-pyrazole-3-carboxylic acid methyl ester] is higher in cytotoxicity at 10 µM: 13.3% for the first, 13.9% for the second.

Going from `COC(=O)c1nn(C)cc1NC(=O)CSc1ccccc1` [Example 15, 4-[2-phenylsulfanylacetylamino]-1-methyl-1H-pyrazole-3-carboxylic acid methyl ester] to `COC(=O)c1cc(NC(=O)CSc2ccccc2)n(C)n1` [Example 22, 1-methyl-5-(2-phenylsulfanyl-acetylamino)-1H-pyrazole-3-carboxylic acid methyl ester], the cytotoxicity at 10 µM falls from 11.3% to 10.7%.

Compared with `COC(=O)c1c(NC(=O)CSc2ccc(Br)cc2)cnn1CCc1ccccc1` [Example 16, 4-[2-(4-bromo-phenylsulfanyl)-acetylamino]-2-phenethyl-2H-pyrazole-3-carboxylic acid methyl ester], `CCOC(=O)c1cnn(CCc2ccccc2)c1NC(=O)CSc1ccc(Br)cc1` [Example 19, 5-[2-(4-bromo-phenylsulfanyl)-acetylamino]-1-phenethyl-1H-pyrazole-4-carboxylic acid ethyl ester] is lower in cytotoxicity at 10 µM: 10.8% for the first, 8.19% for the second.

Going from `COC(=O)c1nn(CCc2ccccc2)cc1NC(=O)C(Sc1ccc(Br)cc1)c1ccccc1` (stereo not drawn) [Example 20, 4-[2-(4-bromo-phenylsulfanyl)-2-phenyl-acetylamino]-1-phenethyl-1H-pyrazole-3-carboxylic acid methyl ester] to `COC(=O)c1nn(CCc2ccccc2)cc1NC(=O)COc1ccc(Br)cc1` [Example 28, 4-[2-(4-bromophenoxy)-acetylamino]-1-phenethyl-1H-pyrazole-3-carboxylic acid methyl ester], the cytotoxicity at 10 µM falls from 6.07% to 3.74%.

Compared with `COC(=O)c1cc(NC(=O)CSc2ccc(Br)cc2)n(C)n1` [Example 21, 5-[2-(4-bromo-phenylsulfanyl)-acetylamino]-1-methyl-1H-pyrazole-3-carboxylic acid methyl ester], `O=C(CSc1ccc(Br)cc1)Nc1cn(CCc2ccccc2)nc1C(=O)O` [Example 23, 4-[2-(4-bromo-phenylsulfanyl)-acetylamino]-1-phenethyl-1H-pyrazole-3-carboxylic acid] is lower in cytotoxicity at 10 µM: 8.33% for the first, 7.76% for the second.

Compared with `O=C(CSc1ccc(Br)cc1)Nc1cn(CCc2ccccc2)nc1C1=NCCO1` [Example 24, 2-(4-bromo-phenylsulfanyl)-N-[3-(4,5-dihydro-oxazol-2-yl)-1-phenethyl-1H-pyrazol-4-yl]-acetamide], `O=C(CSc1ccc(Br)cc1)Nc1cn(CCc2ccccc2)nc1CO` [Example 26, 2-(4-bromo-phenylsulfanyl)-N-(3-hydroxymethyl-1-phenethyl-4H-pyrazol-4-yl)-acetamide] is lower in cytotoxicity at 10 µM: 12.7% for the first, 7.27% for the second.

Compared with `NC(=O)c1nn(CCc2ccccc2)cc1NC(=O)CSc1ccc(Br)cc1` [Example 25, 4-[2-(4-bromo-phenylsulfanyl)-acetylamino]-1-phenethyl-1H-pyrazole-3-carboxylic acid amide], `COCc1nn(CCc2ccccc2)cc1NC(=O)CSc1ccc(Br)cc1` [Example 30, 2-(4-bromo-phenylsulfanyl)-N-(3-methoxymethyl-1-phenethyl-1H-pyrazol-4-yl)-acetamide] is lower in cytotoxicity at 10 µM: 6.07% for the first, 5.22% for the second.

Going from `COC(=O)c1nn(CCc2ccccc2)cc1NC(=O)CCc1ccccc1` [Example 27, 4-[3-phenyl-propionylamino]-1-phenethyl-4H-pyrazole-3-carboxylic acid methyl ester] to `COC(=O)c1nn(CCc2ccccc2)cc1NC(=O)CNc1ccc(Br)cc1` [Example 29, 4-[2-(4-bromo-phenylamino)-acetylamino]-1-phenethyl-1H-pyrazole-3-carboxylic acid methyl ester], the cytotoxicity at 10 µM rises from 5.08% to 9.31%.
